Earlier results as cited in US7625888B2, “Fused triazole derivatives as dipeptidyl peptidase-IV inhibitors for the treatment or prevention of diabetes” (Merck & Co., Inc., priority 2004, dated 2009).
Values belong to the compound of their own block, whether it stands above or below them.

Columns and labels:
cardiac allograft = conditions: rats; doubled from day 7
hematopoiesis = conditions: mouse, cyclophosphamide-induced neutropenia
DPP-IV = target: T1, DPP-IV (Homo sapiens, UniProt P27487)
T1 construct: GRF is rapidly degraded in plasma to GRF[3-44]
T1 sequence (P27487 39-766 limits assumed, species assumed): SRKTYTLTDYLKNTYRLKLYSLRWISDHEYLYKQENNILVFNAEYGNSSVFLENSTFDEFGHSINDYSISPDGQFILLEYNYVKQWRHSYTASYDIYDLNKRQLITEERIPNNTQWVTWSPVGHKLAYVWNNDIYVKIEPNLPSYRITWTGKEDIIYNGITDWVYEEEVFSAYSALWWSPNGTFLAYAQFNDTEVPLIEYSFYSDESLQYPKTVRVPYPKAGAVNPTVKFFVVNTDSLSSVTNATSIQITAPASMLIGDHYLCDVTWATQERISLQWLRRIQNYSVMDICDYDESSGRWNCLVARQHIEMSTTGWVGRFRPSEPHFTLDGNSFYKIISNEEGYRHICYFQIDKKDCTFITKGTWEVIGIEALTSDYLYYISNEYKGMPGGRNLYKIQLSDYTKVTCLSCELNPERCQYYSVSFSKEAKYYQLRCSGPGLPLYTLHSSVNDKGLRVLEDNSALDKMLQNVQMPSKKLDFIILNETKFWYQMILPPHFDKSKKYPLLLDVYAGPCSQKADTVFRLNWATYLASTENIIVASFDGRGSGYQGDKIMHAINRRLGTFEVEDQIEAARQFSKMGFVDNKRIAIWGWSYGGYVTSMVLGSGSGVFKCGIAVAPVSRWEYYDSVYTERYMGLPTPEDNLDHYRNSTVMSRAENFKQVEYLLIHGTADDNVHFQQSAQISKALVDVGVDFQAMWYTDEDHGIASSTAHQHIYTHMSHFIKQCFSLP

Compound: CC(C)N1CCC(c2ccccc2)(c2ccccc2)CC1 [Prodipine, Pro-Pro-diphenyl-phosphonate]
- cardiac allograft survival (cardiac allograft): 14 day

Compound: CC(C)[C@H](N)C(=O)N1CCC[C@H]1B(O)O [Val-Boro-Pro]
- effect on hematopoiesis (hematopoiesis): stimulated hematopoiesis

- degradation of GRF in plasma to GRF[3-44] (DPP-IV): prevented
Compound: diprotin A
